The values below come from PMC3846293 (Bioorganic & medicinal chemistry letters, 2013).

Structures are written as SMILES. Marks after values point to notes of the source that are not given here. Bounds are passed on as bounds.

One data set deals with rat mGlu5 (Rattus norvegicus, UniProt P31424). The data set can be described thus: Calcium mobilization mGlu5 assay. Particulars: for mGlu5 pIC50 (± SEM) / IC50: HEK293A cells expressing rat mGlu5, EC80 glutamate; for mGlu5 pIC50 (± SEM): average of n ≥ 3; for IC50: read-out: mGlu5 IC50. The class given is cell-based. In general terms: Calcium assays in cells follow changes in intracellular calcium, usually with a dye or a luminescent sensor.
Sequence of rat mGlu5 (P31424 21-1203): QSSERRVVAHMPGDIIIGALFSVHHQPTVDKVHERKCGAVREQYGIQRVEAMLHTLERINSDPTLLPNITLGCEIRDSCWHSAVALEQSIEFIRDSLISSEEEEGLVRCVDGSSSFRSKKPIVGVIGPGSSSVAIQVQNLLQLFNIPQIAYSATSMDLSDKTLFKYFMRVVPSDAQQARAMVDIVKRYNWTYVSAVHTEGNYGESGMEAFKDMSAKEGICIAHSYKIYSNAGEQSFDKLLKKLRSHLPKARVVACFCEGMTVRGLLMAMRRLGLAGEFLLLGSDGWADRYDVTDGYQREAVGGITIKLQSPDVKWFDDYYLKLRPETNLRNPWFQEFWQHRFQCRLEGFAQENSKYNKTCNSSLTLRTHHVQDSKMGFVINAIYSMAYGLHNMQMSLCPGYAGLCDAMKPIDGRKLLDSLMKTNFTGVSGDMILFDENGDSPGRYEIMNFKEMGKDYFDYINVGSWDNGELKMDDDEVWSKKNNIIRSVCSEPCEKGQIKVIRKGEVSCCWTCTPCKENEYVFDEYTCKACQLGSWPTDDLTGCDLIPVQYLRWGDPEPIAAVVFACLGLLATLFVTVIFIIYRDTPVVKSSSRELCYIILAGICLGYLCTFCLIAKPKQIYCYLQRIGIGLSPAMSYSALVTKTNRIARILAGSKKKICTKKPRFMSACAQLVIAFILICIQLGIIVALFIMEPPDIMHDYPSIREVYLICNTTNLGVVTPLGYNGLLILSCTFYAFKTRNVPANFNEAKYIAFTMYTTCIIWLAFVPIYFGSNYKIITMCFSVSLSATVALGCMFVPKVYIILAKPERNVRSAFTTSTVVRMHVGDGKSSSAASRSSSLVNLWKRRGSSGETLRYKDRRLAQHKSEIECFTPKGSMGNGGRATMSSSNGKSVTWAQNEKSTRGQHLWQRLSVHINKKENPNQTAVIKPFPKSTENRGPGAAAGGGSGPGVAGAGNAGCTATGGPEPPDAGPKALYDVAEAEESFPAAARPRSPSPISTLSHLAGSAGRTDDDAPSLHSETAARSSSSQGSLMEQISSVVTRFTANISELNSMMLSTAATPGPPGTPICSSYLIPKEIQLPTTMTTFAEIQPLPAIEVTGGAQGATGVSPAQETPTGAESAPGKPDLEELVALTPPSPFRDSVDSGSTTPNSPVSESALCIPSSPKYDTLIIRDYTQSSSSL

In data set [1] the test system is panel of 68 clinically relevant GPCRs, ion channels, kinases, and transporters. In words: Radioligand binding assay panel. Particulars: 10 μM compound; significant = more than 50% inhibition of radioligand binding.
The conditions of data set [2]: prior PK studies in rats; cited from earlier work.
The subject of data set [3] is marble burying. The data set can be described thus: Mouse marble burying model of anxiety. The note with it: IP dosing, 15 minute pretreatment; all doses greater than or equal to 3 mg/kg; n = 8 per dose; P < 0.001 vs. vehicle.
The subject of data set [4] is marble burying. The note with it: mice; ref 7a,d; cited from earlier work.

Take `O=C(Nc1cccc(Cl)c1)c1cccc(Oc2cccnc2)c1` [Compound 3]: on rat mGlu5 (mGlu5 potency vs 2), the “fold less potent than 2” value is on record as “more than 20 fold”. The IC50 is the point on the concentration scale where inhibition reaches its midpoint. With `O=C(Nc1ccncn1)c1cccc(Oc2cccnc2)c1` [Compound 11], at rat mGlu5, the “mGlu5 pIC50 (± SEM)” value was < 5.0 ^c and the IC50 was greater than 10 µM.

`Cc1nsc(NC(=O)c2cccc(Oc3cccnc3)c2)n1` [Compound 19]: at rat mGlu5, the “mGlu5 pIC50 (± SEM)” value is recorded as less than 4.5 and the IC50 was greater than 30 µM. Turning to `O=C(Nc1nc(C(F)(F)F)cs1)c1cccc(Oc2cccnc2)c1` [Compound 20], at rat mGlu5, the “mGlu5 pIC50 (± SEM)” value is on record as less than 4.5 and the IC50 is greater than 30 µM. `Cc1csc(NC(=O)c2cc(F)cc(Oc3cncnc3)c2)n1` [Compound 24]: the “responses in radioligand binding panel of 68 targets” value in data set [1] is given as “no significant responses”. Also, the clearance in rats result in data set [2] is “moderate to high clearance”. In the data set with marble burying [3], the “inhibition of marble burying” value is listed as “Statistically significant inhibition”. On to `CCCc1csc(NC(=O)c2cc(F)cc(Oc3cncnc3)c2)n1` [Compound 33], for which, on rat mGlu5 (mGlu5 potency vs 24), the “fold loss of potency compared to 24” value is 10 fold.

Regarding `CCCc1csc(NC(=O)c2cc(Cl)cc(Oc3cncnc3)c2)n1` [Compound 38], the “fold loss of potency compared to 25” value at rat mGlu5 (mGlu5 potency vs 25) is 7 fold. Take `Cc1ncc(Oc2cc(Cl)cc(C(=O)Nc3ccc(F)cn3)c2)cn1` [Compound 75]: the “fold loss of potency vs. 28” value at rat mGlu5 (mGlu5 potency vs 28) was greater than 100 fold. Regarding `Cc1cccc(NC(=O)c2cc(Cl)cc(Oc3cnc(C)nc3)c2)n1` [Compound 76], at rat mGlu5 (mGlu5 potency vs 66), the “fold decrease in potency vs. 66” value came out at 5 fold. For `Cc1cccc(C#Cc2ccccc2)n1` [MPEP], the “efficacy in marble burying model” value with marble burying [4] was “effective”.

On to `CN1CC(=O)NC1=NC(=O)Nc1cccc(Cl)c1` [fenobam], for which the “efficacy in marble burying model” value with marble burying [4] is given as “effective”.
